Assay results published in patent US10610520B2, “Heterocyclic compound” (Takeda Pharmaceutical Company Limited, priority 2016, dated 2020).

Target: T1, His-hMAGL (recombinant polyhistidine tagged human MAGL protein) (Homo sapiens, UniProt Q99685)
T1 construct: made in house; host or cells: E. coli BL21(DE3)
T1 sequence (Q99685 1-303): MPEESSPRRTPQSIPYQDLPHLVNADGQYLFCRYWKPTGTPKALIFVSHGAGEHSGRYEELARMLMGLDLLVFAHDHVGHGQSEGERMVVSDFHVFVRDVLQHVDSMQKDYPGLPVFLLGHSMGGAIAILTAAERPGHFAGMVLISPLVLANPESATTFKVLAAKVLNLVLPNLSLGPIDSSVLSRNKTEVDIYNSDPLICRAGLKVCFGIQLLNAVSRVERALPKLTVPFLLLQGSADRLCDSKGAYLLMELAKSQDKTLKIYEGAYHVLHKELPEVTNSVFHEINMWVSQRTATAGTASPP
Assay: Measurement of MAGL inhibitory activity (arachidonic acid production from 2-arachidonylglycerol, RapidFire-mass spectrometry)
Assay type: biochemical
Settings: MAGL inhibitory rate, test compound 10 μM, 60 min preincubation, 2-arachidonylglycerol substrate
Outline: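 Arachidonic acid formed was quantified by online solid-phase extraction and triple-quadrupole MS in negative SRM mode against a d8 internal standard. Reaction: recombinant His-hMAGL (7.5 ng/mL, pH 7.5 Tris buffer with Triton X-100 and BSA) plus 2-AG (5 μL of 150 μM stock) for 10 min at room temperature, quenched with 2% formic acid. Percent inhibition corrected for enzyme-free background.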

Compound | inhibition at 10 µM [%]
O=C1CCC2(CN(C(=O)c3sc(-c4cccc(C5(C(F)(F)F)CC5)c4)cc3Cl)C2)N1 [Example 246, 2-((3-chloro-5-(3-(1-(trifluoromethyl)cyclopropyl)phenyl)-2-thienyl)carbonyl)-2,5-diazaspiro[3.4]octan-6-one] | 100
O=C1CCC2(CN(C(=O)c3cccc(C(F)(F)c4ccccc4)c3)C2)N1 [Example 27, 2-(3-(difluoro(phenyl)methyl)benzoyl)-2,5-diazaspiro[3.4]octan-6-one] | 94
Cc1ccc(-c2ccc3c(Cl)c(C(=O)N4CC5(CCC(=O)N5)C4)sc3c2)cn1 [Example 227, 2-((3-chloro-6-(6-methylpyridin-3-yl)-1-benzothiophen-2-yl)carbonyl)-2,5-diazaspiro[3.4]octan-6-one] | 99
O=C1NC2(CO1)CN(C(=O)c1sc3cc(C(F)(F)F)ccc3c1Cl)C2 [Example 241, 2-((3-chloro-6-(trifluoromethyl)-1-benzothiophen-2-yl)carbonyl)-7-oxa-2,5-diazaspiro[3.4]octan-6-one] | 101
O=C1CCC2(CN(C(=O)N3CCN(C(c4ccc(F)cc4)c4ccc(F)cc4)CC3)C2)N1 [Example 113, 2-((4-(bis(4-fluorophenyl)methyl)piperazin-1-yl)carbonyl)-2,5-diazaspiro[3.4]octan-6-one] | 101
O=C1CCC2(CN(C(=O)c3ccc(-c4ccccc4)cc3)C2)N1 [Example 12, 2-(biphenyl-4-ylcarbonyl)-2,5-diazaspiro[3.4]octan-6-one] | 92
O=C1NC2(CO1)CN(C(=O)c1sc3ccc(C(F)(F)F)cc3c1Cl)C2 [Example 258, 2-((3-chloro-5-(trifluoromethyl)-1-benzothiophen-2-yl)carbonyl)-7-oxa-2,5-diazaspiro[3.4]octan-6-one] | 100
O=C1CCC2(CN(C(=O)N3CCC(Cc4ccc(Cl)c(Cl)c4)CC3)C2)N1 [Example 103, 2-((4-(3,4-dichlorobenzyl)piperidin-1-yl)carbonyl)-2,5-diazaspiro[3.4]octan-6-one] | 103
O=C1CCC2(CN(C(=O)c3ccc(-c4cccc5c4CCO5)cc3)C2)N1 [Example 75, 2-(4-(2,3-dihydro-1-benzofuran-4-yl)benzoyl)-2,5-diazaspiro[3.4]octan-6-one] | 90
O=C1NC2(CO1)CN(C(=O)c1sc3c(F)c(OC(F)(F)F)cc(F)c3c1Cl)C2 [Example 315, 2-((3-chloro-4,7-difluoro-6-(trifluoromethoxy)-1-benzothiophen-2-yl)carbonyl)-7-oxa-2,5-diazaspiro[3.4]octan-6-one] | 100
CC(C)c1ccc(-c2ccc3c(Cl)c(C(=O)N4CC5(CCC(=O)N5)C4)sc3c2)cc1 [Example 187, 2-((3-chloro-6-(4-isopropylphenyl)-1-benzothiophen-2-yl)carbonyl)-2,5-diazaspiro[3.4]octan-6-one] | 94
O=C1NC2(CCN(C(=O)c3sc4c(F)c(C(F)(F)F)ccc4c3C(F)F)C2)CO1 (stereo not drawn) [Example 333, 7-((3-(difluoromethyl)-7-fluoro-6-(trifluoromethyl)-1-benzothiophen-2-yl)carbonyl)-3-oxa-1,7-diazaspiro[4.4]nonan-2-one] | 99
O=C1CCC2(CN(C(=O)c3sc4cc(-c5ccc(C(F)(F)F)nc5)ccc4c3Cl)C2)N1 [Example 228, 2-((3-chloro-6-(6-(trifluoromethyl)pyridin-3-yl)-1-benzothiophen-2-yl)carbonyl)-2,5-diazaspiro[3.4]octan-6-one] | 87
CC(C)(C)c1ccc(-c2ccc(C(=O)N3CC4(CCC(=O)N4)C3)cc2)cc1 [Example 54, 2-((4′-tert-butylbiphenyl-4-yl)carbonyl)-2,5-diazaspiro[3.4]octan-6-one] | 99
Cc1c(C(=O)N2CC3(CCC(=O)N3)C2)sc2cc(C(F)(F)F)ccc12 [Example 366, 2-((3-methyl-6-(trifluoromethyl)-1-benzothiophen-2-yl)carbonyl)-2,5-diazaspiro[3.4]octan-6-one] | 99
